The supplement of paper PMC10307832

Columns and labels:
Test in all cases: relative viability (nuclei count vs DMSO), 5 days (fraction); higher = more cells survive
BEN = system: BEN
How it was run: (§1)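 For relative viability, nuclei counts in treated wells were divided by those in vehicle wells. Lung cancer cell lines had been pin-tool dosed in 1536-well plates the day after seeding and cultured for 5 days, then fixed and stained in one step (final 0.05% Triton X-100, 1% formaldehyde, 1 ug/ml Hoechst) and imaged at 4×. Doses were one drug alone or a fixed anchor-drug dose plus five library-drug doses (not always all listed) in √10 steps, and values are duplicate-plate medians.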

CAL-12T = system: CAL-12T
How it was run: as §1

COR-L23 = system: COR-L23
How it was run: as §1

HCC-44 = system: HCC-44
How it was run: as §1

LU99A = system: LU99A
How it was run: as §1

LXF-289 = system: LXF-289
How it was run: as §1

NCI-H1355 = system: NCI-H1355
How it was run: as §1

NCI-H1437 = system: NCI-H1437
How it was run: as §1

NCI-H1563 = system: NCI-H1563
How it was run: as §1

NCI-H1650 = system: NCI-H1650
How it was run: as §1

NCI-H1651 = system: NCI-H1651
How it was run: as §1

NCI-H1666 = system: NCI-H1666
How it was run: as §1

NCI-H1755 = system: NCI-H1755
How it was run: as §1

NCI-H1792 = system: NCI-H1792
How it was run: as §1

NCI-H1993 = system: NCI-H1993
How it was run: as §1

NCI-H2085 = system: NCI-H2085
How it was run: as §1

NCI-H2087 = system: NCI-H2087
How it was run: as §1

NCI-H2170 = system: NCI-H2170
How it was run: as §1

NCI-H460 = system: NCI-H460
How it was run: as §1

NCI-H520 = system: NCI-H520
How it was run: as §1

PC-14 = system: PC-14
How it was run: as §1

SK-MES-1 = system: SK-MES-1
How it was run: as §1

## Cc1csc(=NC2CCCCC2)n1/N=C/c1ccc(O)c(O)c1O [MIM1] + C[C@@H](Oc1cc(-c2cnn(C3CCNCC3)c2)cnc1N)c1c(Cl)ccc(F)c1Cl [Crizotinib] (partner 1 µM)
BEN; first compound 0.2 µM
  relative viability: 0.893
BEN; first compound 0.6325 µM
  relative viability: 0.72
BEN; first compound 2 µM
  relative viability: 0.982
BEN; first compound 6.325 µM
  relative viability: 0.801
BEN; first compound 20 µM
  relative viability: 0.317
CAL-12T; first compound 0.2 µM
  relative viability: 0.596
CAL-12T; first compound 0.6325 µM
  relative viability: 0.676
CAL-12T; first compound 2 µM
  relative viability: 0.515
CAL-12T; first compound 6.325 µM
  relative viability: 0.438
CAL-12T; first compound 20 µM
  relative viability: 0.283
COR-L23; first compound 0.2 µM
  relative viability: 0.571
COR-L23; first compound 0.6325 µM
  relative viability: 0.621
COR-L23; first compound 2 µM
  relative viability: 0.657
COR-L23; first compound 6.325 µM
  relative viability: 0.461
COR-L23; first compound 20 µM
  relative viability: 0.372
HCC-44; first compound 0.2 µM
  relative viability: 0.766
HCC-44; first compound 0.6325 µM
  relative viability: 0.74
HCC-44; first compound 2 µM
  relative viability: 0.67
HCC-44; first compound 6.325 µM
  relative viability: 0.391
HCC-44; first compound 20 µM
  relative viability: 0.152
LU99A; first compound 0.2 µM
  relative viability: 0.56
LU99A; first compound 0.6325 µM
  relative viability: 0.538
LU99A; first compound 2 µM
  relative viability: 0.474
LU99A; first compound 6.325 µM
  relative viability: 0.481
LU99A; first compound 20 µM
  relative viability: 0.29
LXF-289; first compound 0.2 µM
  relative viability: 0.806
LXF-289; first compound 0.6325 µM
  relative viability: 0.732
LXF-289; first compound 2 µM
  relative viability: 0.833
LXF-289; first compound 6.325 µM
  relative viability: 0.655
LXF-289; first compound 20 µM
  relative viability: 0.388
NCI-H1355; first compound 0.2 µM
  relative viability: 1.04
NCI-H1355; first compound 0.6325 µM
  relative viability: 1.16
NCI-H1355; first compound 2 µM
  relative viability: 1
NCI-H1355; first compound 6.325 µM
  relative viability: 0.94
NCI-H1355; first compound 20 µM
  relative viability: 0.516
NCI-H1437; first compound 0.2 µM
  relative viability: 0.888
NCI-H1437; first compound 0.6325 µM
  relative viability: 0.839
NCI-H1437; first compound 2 µM
  relative viability: 0.864
NCI-H1437; first compound 6.325 µM
  relative viability: 0.559
NCI-H1437; first compound 20 µM
  relative viability: 0.631
NCI-H1563; first compound 0.2 µM
  relative viability: 1
NCI-H1563; first compound 0.6325 µM
  relative viability: 0.891
NCI-H1563; first compound 2 µM
  relative viability: 0.749
NCI-H1563; first compound 6.325 µM
  relative viability: 0.784
NCI-H1563; first compound 20 µM
  relative viability: 0.577
NCI-H1650; first compound 0.2 µM
  relative viability: 1.04
NCI-H1650; first compound 0.6325 µM
  relative viability: 0.931
NCI-H1650; first compound 2 µM
  relative viability: 0.495
NCI-H1650; first compound 6.325 µM
  relative viability: 0.47
NCI-H1650; first compound 20 µM
  relative viability: 0.156
NCI-H1651; first compound 0.2 µM
  relative viability: 0.921
NCI-H1651; first compound 0.6325 µM
  relative viability: 0.878
NCI-H1651; first compound 2 µM
  relative viability: 0.827
NCI-H1651; first compound 6.325 µM
  relative viability: 0.832
NCI-H1651; first compound 20 µM
  relative viability: 0.584
NCI-H1666; first compound 0.2 µM
  relative viability: 0.926
NCI-H1666; first compound 0.6325 µM
  relative viability: 0.92
NCI-H1666; first compound 2 µM
  relative viability: 0.958
NCI-H1666; first compound 6.325 µM
  relative viability: 0.663
NCI-H1666; first compound 20 µM
  relative viability: 0.238
NCI-H1755; first compound 0.2 µM
  relative viability: 0.861
NCI-H1755; first compound 0.6325 µM
  relative viability: 0.794
NCI-H1755; first compound 2 µM
  relative viability: 0.803
NCI-H1755; first compound 6.325 µM
  relative viability: 0.68
NCI-H1755; first compound 20 µM
  relative viability: 0.179
NCI-H1792; first compound 0.2 µM
  relative viability: 0.935
NCI-H1792; first compound 0.6325 µM
  relative viability: 0.897
NCI-H1792; first compound 2 µM
  relative viability: 1.02
NCI-H1792; first compound 6.325 µM
  relative viability: 0.481
NCI-H1792; first compound 20 µM
  relative viability: 0.902
NCI-H1993; first compound 0.2 µM
  relative viability: 0.886
NCI-H1993; first compound 0.6325 µM
  relative viability: 0.805
NCI-H1993; first compound 2 µM
  relative viability: 0.827
NCI-H1993; first compound 6.325 µM
  relative viability: 0.608
NCI-H1993; first compound 20 µM
  relative viability: 0.594
NCI-H2085; first compound 0.2 µM
  relative viability: 0.851
NCI-H2085; first compound 0.6325 µM
  relative viability: 0.85
NCI-H2085; first compound 2 µM
  relative viability: 0.761
NCI-H2085; first compound 6.325 µM
  relative viability: 0.825
NCI-H2085; first compound 20 µM
  relative viability: 0.847
NCI-H2087; first compound 0.2 µM
  relative viability: 0.772
NCI-H2087; first compound 0.6325 µM
  relative viability: 0.934
NCI-H2087; first compound 2 µM
  relative viability: 0.838
NCI-H2087; first compound 6.325 µM
  relative viability: 0.739
NCI-H2087; first compound 20 µM
  relative viability: 0.766
NCI-H2170; first compound 0.2 µM
  relative viability: 1.15
NCI-H2170; first compound 0.6325 µM
  relative viability: 1.07
NCI-H2170; first compound 2 µM
  relative viability: 1.13
NCI-H2170; first compound 6.325 µM
  relative viability: 0.652
NCI-H2170; first compound 20 µM
  relative viability: 0.302
NCI-H460; first compound 0.2 µM
  relative viability: 0.853
NCI-H460; first compound 0.6325 µM
  relative viability: 0.994
NCI-H460; first compound 2 µM
  relative viability: 0.374
NCI-H460; first compound 6.325 µM
  relative viability: 0.205
NCI-H460; first compound 20 µM
  relative viability: 0.031
NCI-H520; first compound 0.2 µM
  relative viability: 0.688
NCI-H520; first compound 0.6325 µM
  relative viability: 0.787
NCI-H520; first compound 2 µM
  relative viability: 0.862
NCI-H520; first compound 6.325 µM
  relative viability: 0.578
NCI-H520; first compound 20 µM
  relative viability: 0.498
PC-14; first compound 0.2 µM
  relative viability: 0.854
PC-14; first compound 0.6325 µM
  relative viability: 0.839
PC-14; first compound 2 µM
  relative viability: 0.873
PC-14; first compound 6.325 µM
  relative viability: 0.728
PC-14; first compound 20 µM
  relative viability: 0.254
SK-MES-1; first compound 0.2 µM
  relative viability: 0.953
SK-MES-1; first compound 0.6325 µM
  relative viability: 0.937
SK-MES-1; first compound 2 µM
  relative viability: 0.959
SK-MES-1; first compound 6.325 µM
  relative viability: 0.799
SK-MES-1; first compound 20 µM
  relative viability: 0.732
